Source: patent US20220307053A1, “REGULATABLE EXPRESSION SYSTEMS” (Novartis AG, priority 2019, published 2022)
Entries after “also recorded” stand apart in the source; their conditions may differ.

B1: modified SNX7 minigene (version 2): SNX7 minigene modified to reduce size and eliminate peptide expression in the absence of LMI070; tested in plasmid DL182 (nucleic acid)
DNA: GAAGAAGAAGATATCAAGTTAGCATTTACAGATTTGGCTGAGGAGAAGAACAGGTAATTAGTGTTGTTTGATATTGCTTCATTTTAAAGTTATTTGCTCATTTAGCATTTGATATTGCTTTCTATTGATTGTCCTAACTACTCCTCTTTCCTCTCCCTTCTCCATTTTTGAAGAGTTTGCAAAGGAAGGAAAGGAGCAGAGACTTGATTGAGCAGAAAATCATTTCAGGGCCTGTTCTCTATTGTCCTTGCTATCCTGTCTTCTGTAGCTATCTGAAACCATCAACAAAGGAGCACACCATGGCATCAGCAAAAGAGTAACAACATCTTTTTTTAAGTTCATTTTGTTTTTCAGTTGATTGTATTTCAATTTTTTTACAGCTGACTTTTCTCAGAGAAGTTTTTTTTTTATTGTAAACATACTTTTTCTAGAAAGTATATTTTAAAATAACATCTTTAACCTTATCTCTGGCTGAATTATTGAATATTTGAAATTATTACATTAACAAAATTTTGTCTTACAGCAGTGGTCCCCAACCTTCTTAGCAGTAGCATCCCTCATTAAGAATTAAAATTTGTAGAAATTGACAAGGATTCTGACAAGCTGTTGGGAGAGAAGAATAGAGCAGATTGCAGTAGGAACAGTTGTGTTAGAATTTATTAATCCTTTAACACTGAAAGTAAACTATTGTTGATTGCCTCTTGGTGTGTTTCCATTATTCAGTGCTCTTGCTAAGTGGGAGTCATTCCTTACATCAACCACCAACCTTCACTTGGAAGAAGCTAGCGAAGATAAACCT

Columns and labels:
[1] = test system: pJSNX-GFP (SNX7 minigene ON-switch) in HEK293 cells; assay: GFP expression from SNX7 minigene ON-switch in HEK293 cells (fluorescent microscope, FACS); assay type: cell-based, human; settings: LMI070 2 nm-1 uM, 48 hours post transfection, vs DMSO
Description: (§1) HEK293 cells were maintained in complete DMEM media and seeded in 24-well plate at 100,000 cells per well densite day before transfection. Each well was transfected with 2 ug of pJSNX-GFP plasmid DNA using Lipofectamine2000 (Invitrogen) according to manufacturer's protocol. Transfection media was replaced with complete DMEM 4 hours later. Initial 1 mM stock of LMI070 in DMSO was diluted in 1/1,000-1/500,000 in DMEM to achieve concentrations 2 nm-1 uM when added to the cells in 24 hours later. Control cells received 0.1% DMSO. GFP expression was evaluated 48 hours post transfection using fluorescent microscope. […] For quantitative analysis of GFP expression, cells were trypsinized and analyzed by FACS using SONY SH-800 flow cytometer. Mean fluorescence intensity was used for relative measurement of GFP expression. […] For RNA splicing analysis, total RNA was extracted from cells using Trizol (Invitrogen) according to manufacturer's protocol. cDNA was synthesized using Superscript III 1st strand supermix for qRT-PCR (Invitrogen). Inclusion of exon B was evaluated using qPCR by measuring amounts of exonB-exonC amplified by […] […] Amounts of constitutively spliced RNA (i.e. exonA-exonC) was measured using […] […]

[2] = test system: SNX7 minigene exon B inclusion in HEK293 cells; assay: RNA splicing analysis by qPCR in pJSNX-GFP transfected HEK293 cells; assay type: cell-based, human
Description: as §1

[3] = test system: SNX7 minigene exon B inclusion in primary rat neurons; assay: RNA splicing analysis by qPCR in pJSNX-GFP transfected primary rat neurons; assay type: cell-based
Description: Primary rat neurons were prepared from dissected rat embryo cortices digested with papain and cultured in complete Neurobasal media in 24-well poly-D-Lysine plates (Corning) at density 150,000 cells/well for 7 days. Half of the media was replaced with fresh media day before transfection. Each well was transfected with 2 ug of pJSNX-GFP plasmid DNA using Lipofectamine2000 (Invitrogen) according to manufacturer's protocol, except cells were washed three times with optiMEM before adding DNA-liposomes cocktails. Transfection media was replaced with conditioned media containing 50% fresh complete Neurobasal media 4 hours later. Next day, 1 mM stock of LMI070 in DMSO was diluted in 1/1,000-1/500,000 in DMEM to achieve concentrations 2 nm-1 uM when added to the cells. Control cells received 0.1% DMSO. GFP expression was evaluated 6 days post transfection using fluorescent microscope. […] For RNA splicing analysis, total RNA was extracted from cells using Trizol (Invitrogen) according to manufacturer's protocol. cDNA was synthesized using Superscript III 1st strand supermix for qRT-PCR (Invitrogen). Inclusion of exon B was evaluated using qPCR by measuring amounts of exonB-exonC amplified by […] […] Amounts of constitutively spliced RNA (i.e. exonA-exonC) was measured using […] […]

[4] = test system: pSyn-snx7-PGRN (SNX7 switch) in primary rat neurons; assay: hPGRN expression by TR-FRET assay in pSyn-snx7-PGRN transfected primary rat neurons; assay type: cell-based; settings: 100 nm LMI070, 6 days post transfection
Description: (§2) Primary rat neurons were prepared from dissected rat embryo cortices digested with papain and cultured in complete Neurobasal media in 24-well poly-D-Lysine plates (Corning) at density 150,000 cells/well for 7 days. Half of the media was replaced with fresh media day before transfection. […] Transfection media was replaced with conditioned media containing 50% fresh complete Neurobasal media 4 hours later. Next day, 1 mM stock of LMI070 in DMSO was diluted in 1/10,000 in DMEM to achieve concentrations 100 nm when added to the cells. Control cells received 0.01% DMSO. hPGRN expression was measured 6 days post transfection using TR-FRET assay. In pSyn-snx7-PGRN transfected cells, expression of hPGRN was induced by LMI070 more than 30 times comparing to DMSO-treated control (FIG. 6B). For RNA splicing analysis, total RNA was extracted from cells using Trizol (Invitrogen) according to manufacturer's protocol. cDNA was synthesized using Superscript III 1st strand supermix for qRT-PCR (Invitrogen). Inclusion of exon B was evaluated using qPCR by measuring amounts of exonB-exonC junction amplified by […] (SEQ ID NO: 103) and GCGGTTGCGAGGTTTATCT (SEQ ID NO: 104) primers pair as compared to total transgene mRNA amplified by primers specific to exon C, GCGGTTGCGAGGTTTATCT (SEQ ID NO: 104) and […] (SEQ ID NO: 105). […] Amounts of constitutively spliced RNA (i.e. exonA-exonC) was measured using […] […]

[5] = test system: SNX7 minigene exon B inclusion in primary rat neurons; assay: RNA splicing analysis by qPCR in pSyn-snx7-PGRN transfected primary rat neurons; assay type: cell-based; settings: 100 nm LMI070
Description: as §2

[6] = test system: ssAAV9 hPGRN with SNX7 switch (version 1) in mouse brain; assay: Time course of hPGRN expression in mouse brain after oral LMI070 (ssAAV9 SNX7 switch version 1, TR-FRET); assay type: in vivo; settings: C57Bl/6 mice
Description: ssAAV9 viral vector encoding hPGRN under control of synapsin promoter with SNX7 switch (version 1) was produced in HEK293 cells and purified by iodixanol. 2e10vg of AAV vector in 2 uL was injected ICV in C57Bl/6 neonatal mice at P0. At 4 weeks of age, 30 mg/kg of LMI070 or vehicle control was administered orally through gavage. 4-6 mice per group were taken down at specified time points (FIG. 7A). After transcardial perfusion with PBS posterior half of the left hemisphere was homogenyzed in Precellys tube. TR-FRET assay was used for measurement of human PGRN expressed from AAV vector. […] The transgenic protein expression returned to untreated levels after 4 days post LMI070 administration (FIG. 7B).

[7] = test system: ssAAV9 hPGRN with SNX7 switch (version 1) in mouse brain; assay: Dose response of hPGRN expression in mouse brain after oral LMI070 (ssAAV9 SNX7 switch version 1, TR-FRET); assay type: in vivo, FVB mice
Description: ssAAV9 viral vector encoding hPGRN under control of synapsin promoter with SNX7 switch (version 1) was produced in HEK293 cells and purified by iodixanol. 2e10vg of AAV vector in 2 uL was injected ICV in FVB neonatal mice at P0. At 4 weeks of age, 3, 10 or 30 mg/kg of LMI070 or vehicle control was administered orally through gavage. 6-7 mice per group were taken down at specified time points (FIG. 8A). After transcardial perfusion with PBS posterior half of the left hemisphere was homogenyzed in Precellys tube. TR-FRET assay was used for measurement of human PGRN expressed from AAV vector. Sample of human cortex was used as a control for physiological PGRN levels (˜200 pg/mg).

[8] = test system: SNX7 minigene switch in HEK293 cells; assay: Comparison of SNX7 switch version 1 and version 2 in HEK293 cells in response to LMI070; assay type: cell-based, human; settings: HEK293, plasmid DL182 (version 2) vs DL180 (version 1), LMI070 100 nm-1 uM, 48 hours post transfection
Description: The modified SNX7 minigene (version 2) was inserted into a scAAV vector using molecular cloning techniques. The sequence of the vector comprising the modified SNX7 minigene (version 2) is shown in SEQ ID NO: 95. HEK293 cells were maintained in complete DMEM media and seeded in 24-well plate at 100,000 cells per well densite day before transfection. Each well was transfected with 2 ug of plasmid DNA DL180 containing SNX7 switch version 1 or plasmid DL182 containing SNX7 version 2 using Lipofectamine2000 (Invitrogen) according to manufacturer's protocol. Transfection media was replaced with complete DMEM 4 hours later. Initial 1 mM stock of LMI070 in DMSO was diluted in 1/1,000-1/500,000 in DMEM to achieve concentrations 100 nm-1 uM when added to the cells in 24 hours later. Control cells received 0.1% DMSO. GFP expression was evaluated 48 hours post transfection using fluorescent microscope.

| Molecule | GFP expression (mean fluorescence intensity) [1] | Inclusion of exon B (exonB-exonC vs total transgene mRNA), upregulated as compared to DMSO-treated cells ([2]; HEK293, 125 nM LMI070) [times] | exonA-exonC splicing, lower as compared to control DMSO-treated cells ([2]; HEK293, 1 uM LMI070) [times] | Inclusion of exon B, upregulated as compared to DMSO-treated cells ([3]; 31 nM LMI070) | exonA-exonC splicing, lower as compared to control DMSO-treated cells ([3]; 500 nM LMI070) [times] | expression of hPGRN induced, comparing to DMSO-treated control [4] | Inclusion of exon B, upregulated as compared to DMSO-treated cells [5] | exonA-exonC splicing, lower as compared to DMSO-treated cells [5] [times] | time after which transgenic protein expression returned to untreated levels ([6]; 30 mg/kg LMI070 orally) [days] | hPGRN expression in the brain post LMI070 administration (time course) ([6]; ssAAV9 ICV at P0, 30 mg/kg LMI070 orally at 4 weeks) | transgene expression in brain vs LMI070 dose ([7]; FVB mice, 3, 10 or 30 mg/kg LMI070 orally) | accumulation of transgenic hPGRN in the brain (time course) ([7]; FVB mice, ssAAV9 ICV at P0, 3, 10 or 30 mg/kg LMI070 orally at 4 weeks) | sensitivity of minigene switch in response to LMI070 (GFP expression) [8] |
| --- | --- | --- | --- | --- | --- | --- | --- | --- | --- | --- | --- | --- | --- |
| CC1(C)CC(Oc2ccc(-c3ccc(-c4cn[nH]c4)cc3O)nn2)CC(C)(C)N1 [LMI070, 5-(1H-Pyrazol-4-yl)-2-(6-((2,2,6,6-tetramethylpiperidin-4-yl)oxy)pyridazin-3-yl)phenol] | dose-dependent increase in GFP expression | 75 | 60 | more than 100 times | 30 | more than 30 times | more than 150 times | 10 | 4 | rapid and transient induction of hPGRN expression in the brain after 24 hours post LMI070 administration; also recorded: switches on transgene expression in mouse brain in time-dependent manner | dose response; also recorded: switches on transgene expression in mouse brain in dose-dependent manner | rapid (12 hours post LMI070 administration) accumulation of transgenic hPGRN in the brain, which starts to decline at 24 hour point | – |
| B1 | – | – | – | – | – | – | – | – | – | – | – | – | more sensitive than the previous version |
